Experimental data: patent publication US4668663A, “Renin inhibitors containing homophe^8” (Merck & Co., Inc., priority 1984, dated 1987)
Numbered stars: 1 amine (or outer) side, 2 acyl side, 3 side chain; on linkers, the order of the positions; unused ones are H or OH. Square brackets hold non-standard residues; d marks the D form. Peptide text beside a SMILES is read from it. * marks the point of attachment. ACHPA = O=C(C[C@H](O)[C@H](CC1CCCCC1)N[*:1])[*:2]; Sta = CC(C)C[C@H](N)[C@@H](O)CC(=O)O; hhPhe = N[C@@H](CCCc1ccccc1)C(=O)O; hPhe = N[C@@H](CCc1ccccc1)C(=O)O; Isovaleryl = CC(C)CC(=O)*; Boc = CC(C)(C)OC(=O)*

Key:
[1] = molecular target: T1, dog plasma renin (Canis lupus familiaris, UniProt Q6DYE7); assay: Dog plasma renin assay; assay type: biochemical; conditions: read-out: Dog Plasma I50
T1 construct: Further assays measured human plasma renin and dog plasma renin; from tissue; host or cells: dog plasma
T1 sequence (Q6DYE7 66-403): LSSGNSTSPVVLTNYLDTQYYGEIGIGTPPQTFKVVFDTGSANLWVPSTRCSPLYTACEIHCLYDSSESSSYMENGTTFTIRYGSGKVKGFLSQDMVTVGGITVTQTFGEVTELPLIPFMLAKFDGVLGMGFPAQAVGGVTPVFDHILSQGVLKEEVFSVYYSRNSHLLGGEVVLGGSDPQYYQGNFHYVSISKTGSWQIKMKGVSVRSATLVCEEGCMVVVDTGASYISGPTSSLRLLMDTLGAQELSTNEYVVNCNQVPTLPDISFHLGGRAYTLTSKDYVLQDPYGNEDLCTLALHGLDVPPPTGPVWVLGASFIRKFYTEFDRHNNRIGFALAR
Method: (§1) Assays were carried out in order to determine the inhibitory potency of the peptides of the present invention. One assay measured the inhibition of hog kidney renin, and was in accordance with the procedure described in Rich et al., J. Med. Chem. 23: 27, 1980, except that a pH of 7.3 was used. Another assay measured the inhibition of human kidney renin purified as described in Bangham, D. R., Robertson, I., Robinson, J. I. S., Robinson, C. J., and Tree, M., Clinical Science and Molecular Medicine, 48 (Supp. 2): 136s-159s (1975), and further purified by affinity chromatography on pepstatin-aminohexyl-Sepharase as described in Poe, M., Wu., J. K., Florance, J. R., Radkey, J. A., Bennett, C. D., and Hoogsteen, K., J. Biol. Chem. 258: 2209-2216 (1983). The assay was also in accordance with Poe et al. cited above. Further assays measured human plasma renin and dog plasma renin in accordance with procedures described in Boger et al, Nature, 303: 81-84 (1983).

[2] = molecular target: T2, human kidney renin (Homo sapiens, UniProt P00797); assay: Inhibition of purified human kidney renin; assay type: biochemical; conditions: dissociation constant of the inhibited enzyme-inhibitor complex
T2 construct: human kidney renin purified as described in Bangham; from tissue; host or cells: human kidney
T2 sequence (P00797 67-406): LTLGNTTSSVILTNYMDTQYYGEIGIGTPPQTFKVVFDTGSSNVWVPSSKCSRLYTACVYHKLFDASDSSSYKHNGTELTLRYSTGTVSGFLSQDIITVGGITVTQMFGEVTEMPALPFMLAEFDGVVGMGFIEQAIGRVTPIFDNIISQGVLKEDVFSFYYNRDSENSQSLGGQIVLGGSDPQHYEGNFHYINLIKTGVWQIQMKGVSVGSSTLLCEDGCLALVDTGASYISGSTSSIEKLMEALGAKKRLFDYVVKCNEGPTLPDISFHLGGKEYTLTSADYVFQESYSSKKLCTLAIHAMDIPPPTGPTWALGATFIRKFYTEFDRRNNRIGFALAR
Method: as §1
Results expressed as KI values refer to the dissociation constant of the inhibited enzyme-inhibitor complex. This KI value was obtained as described above. Pepstatin was used as an active control.

[3] = molecular target: T3, human plasma renin (Homo sapiens, UniProt P00797); assay: Human plasma renin assay; assay type: biochemical; conditions: read-out: Human Plasma I50
T3 construct: Further assays measured human plasma renin and dog plasma renin; from tissue; host or cells: human plasma
T3 sequence (P00797 67-406): T2 sequence (P00797 67-406)
Method: as §1

[4] = test system: hog renin; conditions: after the injection of hog renin into nephrectomized rats (Gross et al.); cited from earlier work

Compound	IC50 [1] [nM]	Ki [2] [nM]	IC50 [3] [nM]	blood pressure in vivo [4]
CC(C)C[C@H](NC(=O)C[C@H](O)[C@H](CC1CCCCC1)NC(=O)[C@H](Cc1c[nH]cn1)NC(=O)[C@H](CCc1ccccc1)NC(=O)OC(C)(C)C)C(N)=O [BOC--HomoPhe--His--ACHPA--Leu--NH2, BocHPhe--His--ACHPA--Leu--NH2]	100	1.17	3.9	
COC(=O)[C@H](CC(C)C)NC(=O)C[C@H](O)[C@H](CC1CCCCC1)NC(=O)[C@H](Cc1c[nH]cn1)NC(=O)[C@H](CCc1ccccc1)NC(=O)OC(C)(C)C [BOC--HomoPhe--His--ACHPA--Leu--OCH3, BocHPhe--His--ACHPA--Leu--OCH3]		0.98		
COC(=O)[C@H](Cc1ccccc1)NC(=O)[C@H](CC(C)C)NC(=O)C[C@H](O)[C@H](CC1CCCCC1)NC(=O)[C@H](Cc1c[nH]cn1)NC(=O)[C@H](CCc1ccccc1)NC(=O)OC(C)(C)C [BOC--HomoPhe--His--ACHPA--Leu--Phe--OCH3, BocHPhe--His--ACHPA--Leu--Phe--OCH3] (Boc-[hPhe]H[ACHPA]LF-OMe)	16	0.39	4	
CC(C)CC(=O)N[C@@H](Cc1c[nH]cn1)C(=O)N1CCC[C@H]1C(=O)N[C@@H](CCCc1ccccc1)C(=O)N[C@@H](Cc1c[nH]cn1)C(=O)N[C@@H](CC(C)C)[C@@H](O)CC(=O)N[C@@H](CC(C)C)C(=O)N[C@@H](Cc1ccccc1)C(N)=O [N^α -Isovaleryl-L-Histidyl-L-Prolyl-L-Bishomophenylalanyl-L-Histidyl-(3S,4S)-Statyl-L-Leucyl-L-Phenylalanyl Amide] (Isovaleryl-HP[hhPhe]H[Sta]LF-NH2)	320	90		
CC(C)CC(=O)N[C@@H](Cc1c[nH]cn1)C(=O)N1CCC[C@H]1C(=O)N[C@@H](CCc1ccccc1)C(=O)N[C@@H](Cc1c[nH]cn1)C(=O)N[C@@H](CC(C)C)[C@@H](O)CC(=O)N[C@@H](CC(C)C)C(=O)N[C@@H](Cc1ccccc1)C(N)=O [N^α -Isovaleryl-L-Histidyl-L-Prolyl-L-Homophenylalanyl-L-Histidyl-(3S,4S)-Statyl-L-Leucyl-L-Phenylalanyl Amide] (Isovaleryl-HP[hPhe]H[Sta]LF-NH2)	4.5	0.33	0.14	
pepstatin				reduce blood pressure
